9 compounds from PubChem BioAssay (NCI) can be followed below.

What all share (test): DTP human tumour cell line panel, 48 h
Assay [1] relates to DU-145 prostate.
The test system of assay [2] is M14 melanoma.
The subject of assay [3] is MOLT-4 leukemia.
Assay [4] has as its system NCI-H23 lung.
The subject of assay [5] is NCI/ADR-RES ovarian.
Assay [6] deals with OVCAR-4 ovarian.
Assay [7] has as its system SK-MEL-5 melanoma.
Assay [8] has as its system T-47D breast.
For assay [9], the system named is U251 CNS.
The subject of assay [10] is UO-31 renal.

The structures appear in SMILES notation.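 96-well plates; 48 h exposure; 5 concentrations. Endpoints by linear interpolation between flanking doses. Not reached: highest tested concentration assigned. GI50 marks 50% less growth. TGI: total growth inhibition.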

`C=CCOc1ccc2c(C)cc(=O)oc2c1C`: the TGI in [1], in [2], in assay [3], in assay [4], in assay [5] and in assay [6] was more than 100 µM throughout. The TGI in assay [7], in assay [8], in assay [9] and in assay [10] was more than 100 µM each time.

As to `NC(N)=NS(=O)(=O)c1ccc(Nc2c3ccccc3nc3c(C(=O)NCCO)cccc23)cc1`, the GI50 in [1] is 15.3 µM; in assay [2], 26.3 µM; in [3], 4.78 µM; in assay [4], 26.3 µM; in assay [5] it was 48.7 µM; in assay [6], 25.3 µM. The GI50 was 15.6 µM in assay [7], 11 µM in assay [8], 26 µM in [9] and 18 µM in assay [10]. In assay [5], the total growth inhibition concentration (TGI) is more than 100 µM.

As to `COc1ccc2c(c1)sc1nc(-c3ccccc3)c(-c3cccc4ccccc34)n12`, the GI50 in assay [1] is 0.767 µM; in assay [2] it was 0.475 µM; in assay [3] it was 0.774 µM; in [4], 1.21 µM; in assay [5], 0.47 µM; in assay [6], 2.87 µM. Moreover, the GI50 in [7] was 0.233 µM; in assay [8], 4.38 µM; in assay [9], 0.447 µM; in assay [10] it was 1.34 µM. For the same compound, the TGI is more than 31.9 µM in [1]; more than 100 µM in [2]; more than 100 µM in [3]; more than 100 µM in [4]; more than 100 µM in assay [5]; more than 100 µM in [6]. Besides, the TGI in assay [7] was 0.856 µM; in [8] it was more than 62.2 µM; in assay [9], more than 100 µM; in [10], more than 100 µM.

As to `Fc1ccc(NC(=S)SCc2ccc3c(c2)OCO3)cc1F`, the total growth inhibition concentration (TGI) was more than 100 µM in [1]; 39.1 µM in [2]; 39.8 µM in assay [3]; 51.6 µM in assay [4]; 75.7 µM in assay [5]; more than 100 µM in assay [6]. The total growth inhibition concentration (TGI) came to 29.5 µM in assay [7], 33 µM in [8], 43.1 µM in assay [9] and 37.9 µM in assay [10].

For the compound `Cc1ccc(CN2CCC(C(=O)Nc3ccc(-c4cc5ccccc5[nH]4)cc3)CC2)o1`, the GI50 in [1] is more than 100 µM; in assay [2], 66.1 µM; in assay [3] it was more than 100 µM; in assay [4], more than 100 µM; in assay [5], more than 100 µM; in assay [6], 70.1 µM. Further, the GI50 in assay [7] was 46.6 µM; in assay [8], more than 100 µM; in assay [9], 21 µM; in assay [10], more than 100 µM. The TGI in assay [1], in assay [2], in [3], in assay [4], in [5] and in assay [6] was more than 100 µM throughout. The concentration for total growth inhibition (TGI) in [7], in assay [8], in assay [9] and in assay [10] was more than 100 µM throughout.

Turning to `O=C1/C(=C/c2ccc(O)c(O)c2)CCC/C1=C\c1ccc(O)c(O)c1`, the TGI was 17.5 µM in assay [1]; 18.4 µM in assay [2]; more than 44 µM in assay [3]; 11.3 µM in assay [4]; 23.8 µM in [5]; 41.9 µM in assay [6]. The TGI in assay [7] is 3.81 µM; in assay [8] it was more than 48.1 µM; in assay [9], 15.7 µM; in [10] it was 4.34 µM.

In the case of `CN(C)c1ccc(/C=C\C2=[N+](C)c3ccccc3C2(C)C)cc1`, the GI50 is 0.473 µM in assay [1]; 1.91 µM in assay [2]; 0.299 µM in [4]; 10.6 µM in assay [5]; 0.981 µM in assay [6]; 0.715 µM in [7]. Also, the GI50 is 0.634 µM in assay [8], 0.233 µM in assay [9] and 3.74 µM in [10]. Further, the total growth inhibition concentration (TGI) was 27 µM in [1]; more than 38.2 µM in assay [2]; more than 100 µM in [3]; 23.7 µM in assay [4]; more than 61.6 µM in assay [5]; more than 59.4 µM in assay [6]. Besides, the TGI is 3 µM in assay [7], more than 33.2 µM in assay [8], 17.4 µM in assay [9] and more than 100 µM in assay [10].

In the case of `COC([CH2][Hg][n]1cnc2c1c(=O)n(C)c(=O)n2C)CN1C(=O)c2ccccc2S1(=O)=O` (stereo not given), the GI50 in [1], in [2], in assay [3], in [4], in assay [5] and in [6] was more than 100 µM in each case. Moreover, the GI50 in assay [7], in assay [8], in assay [9] and in assay [10] was more than 100 µM throughout. For the same compound, the total growth inhibition concentration (TGI) in assay [1], in [2], in [3], in assay [4], in assay [5] and in assay [6] was more than 100 µM each time. Also, the concentration for total growth inhibition (TGI) in assay [7], in assay [8], in assay [9] and in assay [10] was more than 100 µM throughout.

With `CCN1/C(=C\c2cc[n+](CC)c3ccccc23)C=Cc2ccccc21`, the concentration for 50% growth inhibition (GI50) in [1] was 0.265 µM; in assay [2], 0.302 µM; in assay [3], 0.207 µM; in [4], 0.0871 µM; in [5], 13.8 µM; in assay [6], 0.0559 µM. Also, the GI50 in assay [7] is 0.0605 µM; in assay [8], 0.0403 µM; in assay [9] it was 0.119 µM; in assay [10], 1.89 µM. The TGI in assay [1] was determined as 13.4 µM; in assay [2] it was 2.47 µM; in assay [3] it was 4.44 µM; in assay [4], 7.56 µM; in assay [5], 46.2 µM; in assay [6] it was 12.2 µM. Moreover, the concentration for total growth inhibition (TGI) in [7] amounted to 0.215 µM; in [8] it was 1.75 µM; in assay [9], 12.7 µM; in assay [10] it was 8.1 µM.

Broadly, the TGI is the concentration giving total growth inhibition. High values mean less potent growth arrest, low ones more potent growth arrest. A word on the GI50: it is the concentration that inhibits growth by half.
